According to patent US7189680B2, “5-halo-6-aryl[1,2,4]triazolo[1,5-a]pyrimidin-7-amines” (Bayer Cropscience AG, priority 2001, dated 2007):

Assay: logP determination by HPLC (EEC directive 79/831 Annex V. A8)
Format: physicochemical
Conditions: HPLC gradient method, acetonitrile/0.1% aqueous phosphoric acid; Table 1
Method: *) The logP values were determined in accordance with EEC directive 79/831 Annex V. A8 by HPLC (gradient method, acetonitrile/0.1% aqueous phosphoric acid)

Compound	logP*
COC(=O)N(C)Nc1c(-c2ccccc2F)c(Cl)nc2ncnn12 [Example 93]	1.8
Fc1ccccc1-c1c(Cl)nc2ncnn2c1NOCc1ccccc1 [Example 95]	2.83
CC(C)ONc1c(-c2ccccc2F)c(Cl)nc2ncnn12 [Example 98]	2.42
Fc1ccccc1-c1c(Cl)nc2ncnn2c1NOCc1cccc(C(F)(F)F)c1 [Example 99]	3.34
CCCCONc1c(-c2ccccc2F)c(Cl)nc2ncnn12 [Example 100]	2.85
Fc1ccccc1-c1c(Cl)nc2ncnn2c1NOCc1c(Cl)cccc1Cl [Example 101]	3.3
CCONc1c(-c2c(F)cccc2F)c(Cl)nc2ncnn12 [Example 102]	2.18
Fc1cccc(F)c1-c1c(Cl)nc2ncnn2c1NOCc1cc(Cl)cc(Cl)c1 [Example 104]	3.63
Fc1cccc(F)c1-c1c(Cl)nc2ncnn2c1NOCc1ccccc1Cl [Example 106]	3.07
Fc1ccc(CONc2c(-c3c(F)cccc3F)c(Cl)nc3ncnn23)cc1 [Example 107]	2.86
Fc1c(F)c(F)c(-c2c(Cl)nc3ncnn3c2NOCc2ccccc2)c(F)c1F [Example 112]	3.37
Fc1c(F)c(F)c(-c2c(Cl)nc3ncnn3c2NOCc2cc(Cl)cc(Cl)c2)c(F)c1F [Example 113]	4.07
Fc1c(F)c(F)c(-c2c(Cl)nc3ncnn3c2NOCc2ccc(Cl)cc2Cl)c(F)c1F [Example 114]	4.02
Fc1c(F)c(F)c(-c2c(Cl)nc3ncnn3c2NOCc2ccc(C(F)(F)F)cc2)c(F)c1F [Example 115]	3.77
Fc1c(F)c(F)c(-c2c(Cl)nc3ncnn3c2NOCc2cccc(C(F)(F)F)c2)c(F)c1F [Example 118]	3.72
CC(C)ONc1c(-c2c(F)c(F)c(F)c(F)c2F)c(Cl)nc2ncnn12 [Example 122]	3.04
CN(O)c1c(-c2c(F)cccc2F)c(Cl)nc2ncnn12 [Example 124]	2.19

Compound	logP*
NN(c1c(-c2c(F)cc(F)cc2F)c(Cl)nc2ncnn12)C1CCCCC1 [Example 125]	3.33
COCCN(N)c1c(-c2c(F)cc(F)cc2F)c(Cl)nc2ncnn12 [Example 128]	2.26
NN(CCN1CCOCC1)c1c(-c2c(F)cc(F)cc2F)c(Cl)nc2ncnn12 [Example 129]	1.1
CCCCN(N)c1c(-c2c(F)cc(F)cc2F)c(Cl)nc2ncnn12 [Example 132]	2.96
CC(C)N(N)c1c(-c2ccc(C(F)(F)F)cc2F)c(Cl)nc2ncnn12 [Example 134]	3.08
CC(C)CN(N)c1c(-c2ccc(C(F)(F)F)cc2F)c(Cl)nc2ncnn12 [Example 135]	3.43
CCC(C)N(N)c1c(-c2c(F)cc(F)cc2F)c(Cl)nc2ncnn12 (centres unmarked) [Example 139]	2.93
C#CCN(N)c1c(-c2c(F)cc(F)cc2F)c(Cl)nc2ncnn12 [Example 142]	2.22
CCC(C)N(N)c1c(-c2cccc(C(F)(F)F)c2Cl)c(Cl)nc2ncnn12 (centres unmarked) [Example 144]	3.44
CCC(C)N(N)c1c(-c2cc(C(F)(F)F)ccc2Cl)c(Cl)nc2ncnn12 (centres unmarked) [Example 148]	3.53
CCC(C)NNc1c(-c2cc(C(F)(F)F)ccc2Cl)c(Cl)nc2ncnn12 (centres unmarked) [Example 149]	3.47
CON(CC(C)C)c1c(-c2c(F)cc(F)cc2F)c(Cl)nc2ncnn12 [Example 152]	3.78
CC(C)CN(N)c1c(-c2c(Cl)cccc2Cl)c(Cl)nc2ncnn12 [Example 155]	3.17
CC(=O)NN(CC(C)C)c1c(-c2c(F)cc(F)cc2F)c(Cl)nc2ncnn12 [Example 157]	2.25
CC(C)=NN(CC(C)C)c1c(-c2c(F)cc(F)cc2F)c(Cl)nc2ncnn12 [Example 158]	3.63
CC=NN(CC1CC1(Cl)Cl)c1c(-c2c(F)cc(F)cc2F)c(Cl)nc2ncnn12 (centres unmarked) [Example 167]	3.72

The remaining lines, values ahead:

logP*	Compound
2.13	CNN(C)c1c(-c2ccccc2F)c(Cl)nc2ncnn12 [Example 88]
2.06	CCNNc1c(-c2ccccc2F)c(Cl)nc2ncnn12 [Example 89]
2.77	CCCCNNc1c(-c2ccccc2F)c(Cl)nc2ncnn12 [Example 90]
1.82	N#CCCNNc1c(-c2ccccc2F)c(Cl)nc2ncnn12 [Example 94]
3.69	Fc1ccccc1-c1c(Cl)nc2ncnn2c1NOCc1cc(Cl)cc(Cl)c1 [Example 96]
3.6	Fc1ccccc1-c1c(Cl)nc2ncnn2c1NOCc1ccc(Cl)cc1Cl [Example 97]
2.8	Fc1cccc(F)c1-c1c(Cl)nc2ncnn2c1NOCc1ccccc1 [Example 103]
3.32	Fc1cccc(F)c1-c1c(Cl)nc2ncnn2c1NOCc1ccc(C(F)(F)F)cc1 [Example 105]
3.3	Fc1cccc(F)c1-c1c(Cl)nc2ncnn2c1NOCc1cccc(C(F)(F)F)c1 [Example 108]
2.83	CCCCONc1c(-c2c(F)cccc2F)c(Cl)nc2ncnn12 [Example 109]
3.2	Fc1cccc(F)c1-c1c(Cl)nc2ncnn2c1NOCc1c(Cl)cccc1Cl [Example 110]
3.58	Fc1c(F)c(F)c(-c2c(Cl)nc3ncnn3c2NOCc2ccccc2Cl)c(F)c1F [Example 116]
3.64	Fc1c(F)c(F)c(-c2c(Cl)nc3ncnn3c2NOCc2cccc(Cl)c2)c(F)c1F [Example 117]
3.49	CCCCONc1c(-c2c(F)c(F)c(F)c(F)c2F)c(Cl)nc2ncnn12 [Example 119]
3.65	Fc1c(F)c(F)c(-c2c(Cl)nc3ncnn3c2NOCc2c(Cl)cccc2Cl)c(F)c1F [Example 120]
2.53	CONc1c(-c2c(F)c(F)c(F)c(F)c2F)c(Cl)nc2ncnn12 [Example 121]
1.99	CN(O)c1c(-c2c(F)cc(F)cc2F)c(Cl)nc2ncnn12 [Example 123]
2.58	CC(C)CN(N)c1c(-c2c(Cl)c(F)cc(C(F)(F)F)c2Cl)c(Cl)nc2ncnn12 [Example 126]
2.55	NN(CC1CCCO1)c1c(-c2c(F)cc(F)cc2F)c(Cl)nc2ncnn12 (centres unmarked) [Example 127]
3.07	NN(c1c(-c2c(F)cc(F)cc2F)c(Cl)nc2ncnn12)C1CCCC1 [Example 130]
2.91	CC(C)CN(N)c1c(-c2c(F)cc(F)cc2F)c(Cl)nc2ncnn12 [Example 131]
2.62	CC(C)N(N)c1c(-c2c(F)cc(F)cc2F)c(Cl)nc2ncnn12 [Example 133]

logP*	Compound
3.85	CC(C)CN(N)c1c(-c2c(Cl)cc(C(F)(F)F)cc2Cl)c(Cl)nc2ncnn12 [Example 136]
3.57	CC(C)CN(N)c1c(-c2cc(C(F)(F)F)ccc2C(F)(F)F)c(Cl)nc2ncnn12 [Example 137]
2.94	CC(C)CN(N)c1c(-c2c(F)cccc2Cl)c(Cl)nc2ncnn12 [Example 138]
3.51	CC(C)CN(N)c1c(-c2cc(C(F)(F)F)ccc2Cl)c(Cl)nc2ncnn12 [Example 140]
3.66	NN(c1c(-c2c(F)cc(F)cc2F)c(Cl)nc2ncnn12)C1CCCCCC1 [Example 141]
3.37	CCC(C)NNc1c(-c2cccc(C(F)(F)F)c2Cl)c(Cl)nc2ncnn12 (centres unmarked) [Example 145]
3.99	CCC(C)N(N)c1c(-c2cc(C(F)(F)F)ccc2Cl)c(Cl)nc2ncnn12 (centres unmarked) [Example 146]
3.95	CCC(C)NNc1c(-c2cc(C(F)(F)F)ccc2Cl)c(Cl)nc2ncnn12 (centres unmarked) [Example 147]
3.27	CCC(C)N(N)c1c(-c2cccc3c2OC(F)(F)O3)c(Cl)nc2ncnn12 (centres unmarked) [Example 150]
3.21	CCC(C)NNc1c(-c2cccc3c2OC(F)(F)O3)c(Cl)nc2ncnn12 (centres unmarked) [Example 151]
2.88	CC(C)CN(N)c1c(-c2c(F)cc(F)cc2F)c(Cl)nc2ncnn12.Cl [Example 153]
3.14	CCC(C)NNc1c(-c2c(Cl)cccc2Cl)c(Cl)nc2ncnn12 (centres unmarked) [Example 154]
3.18	CC(C)CNNc1c(-c2c(Cl)cccc2Cl)c(Cl)nc2ncnn12 [Example 156]
2.66	NN(CC1CC1)c1c(-c2c(F)cc(F)cc2F)c(Cl)nc2ncnn12 [Example 159]
3.21	Clc1cccc(Cl)c1-c1c(Cl)nc2ncnn2c1NNC1CCCC1 [Example 160]
3.37	NN(c1c(-c2c(Cl)cccc2Cl)c(Cl)nc2ncnn12)C1CCCC1 [Example 161]
2.63	NN(CC1CC1)c1c(-c2c(F)cccc2Cl)c(Cl)nc2ncnn12 [Example 162]
3.45	CC(C)CN(N)c1c(-c2cccc(C(F)(F)F)c2Cl)c(Cl)nc2ncnn12 [Example 163]
2.8	NN(CC1CC1)c1c(-c2c(Cl)cccc2Cl)c(Cl)nc2ncnn12 [Example 164]
3.07	CC(=NNc1c(-c2c(F)cc(F)cc2F)c(Cl)nc2ncnn12)C(F)(F)F [Example 165]
3.11	NN(CC1CC1(Cl)Cl)c1c(-c2c(F)cc(F)cc2F)c(Cl)nc2ncnn12 (centres unmarked) [Example 166]
2.99	CCOC(=O)NN(CC(C)C)c1c(-c2c(F)cc(F)cc2F)c(Cl)nc2ncnn12 [Example 168]
